# According to patent US7268139B2, “Methods of promoting osteogenesis” (Scios, Inc., priority 2002, dated 2007):
# How the values were obtained:
# [1] = test system: mouse model of RA (collagen type II arthritis); experiment: Murine collagen type II arthritis, early and advanced disease; assay type: in vivo
# Procedure: A p38α MAP kinase inhibitor (compound 162, Table B) was evaluated to determine whether a p38 inhibitor could modulate cartilage and bone destruction in a mouse model of RA. Induction of RA was achieved using bovine type II cartilage (100 ug/kg, subcutaneous on days 0 and 21) and bacterial lipopolysaccharide (50 ug/mouse, intraperitoneal on day 22).
# Oral treatment was vehicle alone (1% PEG 400, bid) or the p38 inhibitor (90 mg/kg bid). The duration of treatment was 10 and 20 days in mice with early onset or advanced disease, respectively. Treatment was initiated in mice with early onset or advanced disease. Disease state was determined by clinical scoring performed in a blinded protocol that assigned a maximum per paw value of 3 based upon degree of erythema and swelling observed. Early or advanced disease was judged by clinical scoring, 1.6+0.6 (mean+/−std dev) on day 24 and 9.1±2.6 on day 30, respectively.
# [2] = test system: closed femur fractures in female retired breeder Sprague-Dawley rats; experiment: Closed femur fracture healing in rats, radiographic analysis; assay type: in vivo, rat; conditions: for Radiographic score, Mean: Group C rats, score 0 to 4
# Procedure: Closed femur fractures were made in female retired breeder Sprague-Dawley rats. The rats were given oral doses of the p38 MAP kinase inhibitor (compound 25, Table B)(30 mg/kg) once or twice per day and either vehicle only (control) or rofecoxib (Vioxx, 3 mg/kg, once a day) as a positive control for fracture inhibition.
# (§1) Retired breeder female Sprague-Dawley rats were purchased from Taconic Farms. The rats were housed in pairs and given food and water ad libitum. A total of 124 rats were purchased for these experiments (Table 4). However, only 65 rats were used for the final set of experiments as described in Table 4. Drugs were first administered to the rats by gavage using PEG300 (Sigma) as a carrier (0.5 ml per kg). Rats were initially gavaged with drugs 6 hours after surgery (between 4 and 6 PM on day 1) and then twice/day afterwards for 5 days (between 6-8 AM and again between 5-7 PM). The p38 MAP kinase inhibitor used in the experiments is compound 25, Table B. Rofecoxib was obtained by pulverizing Vioxx pills (Merck).
# (§2) Rats were anesthetized with a ketamine-xylazine mixture. The right hindlimb was shaved, and cleansed with betadine. A medial parapatellar incision was made through the skin and underlying muscle to the distal end of the femur. The patella was dislocated laterally to expose the femoral condyles. A 20 g needle was used to drill a hole into the distal end of the femur, between the condyles, and then used to ream the femoral canal. A 0.81 mm diameter stainless steel wire was then inserted into the femoral condyle and tamped into the proximal end of the femur. The rod was then trimmed as close as possible to the femoral condyles with wire cutters. The incision was closed in two layers with resorbable Vicryl sutures. A mid-shaft transverse fracture was made in the right femur using a three-point bending device as described previously (Bonnarens, F. and Einhorn, T. A., J. Orthop. Res. 2:97-101 (1984)).
# Radiographs were made using an HP Faxitron and Kodak MINR2000 mammography film. Radiographs were photographed with and Olympus C-3040 digital camera for figure preparation. The 4 week post-fracture radiographs from all the rats that had survived to 4 weeks in Group C (rats 60-124) and which were not comminuted, infected, or destabilized were scored as follows. One point was assigned to each radiograph in which a cortex of the fracture callus appeared bridged and/or where the cortical bone fracture site appeared to be bridged by new bone. Thus a radiograph could have a minimal score of 0 or a maximal score of 4.
# [3] = test system: closed femur fractures in female retired breeder Sprague-Dawley rats; experiment: Closed femur fracture healing in rats, torsional mechanical testing; assay type: in vivo, rat
# Procedure: Torsional mechanical testing was performed on the fractured (right) and contralateral (left) femurs from control, rofecoxib (3 mg/kg/day); p38 MAP kinase inhibitor (30 mg/kg/day), and p38 MAP kinase inhibitor (2×30 mg/kg/day). The stabilizing rods were removed from the femurs prior to testing and the femurs were wrapped in saline soaked gauze to prevent dehydration prior to testing. The ends of the femurs were potted in hex nuts with Wood's metal and the peak torque and angle failure determined using an MTS servohydraulic mechanical testing machine and a 20 Nm reaction torque load cell as per standard procedures (Simon, A. M. et al., J. Bone Miner. Res. 17:963-976 (2002)). Femur and fracture callus dimensions and gage length were measured before and after mechanical testing using digital calipers. The values obtained were used to calculate torsional rigidity, and shear stress as described (Simon, A. M. et al., J. Bone Min. Res., in press (2002)). Finally, the data was normalized as the percentage of the fractured femur relative to the contralateral femur for each animal. This helped to reduce animal-to-animal variability.
# as §1, §2
# Rats with oblique, comminuted, or infected fractures were not used for mechanical testing (see Appendix A). Both femora were removed and cleaned of all soft tissue leaving the fracture callus undisturbed and then immediately processed for mechanical testing. The samples were wrapped in saline soaked gauze to prevent dehydration between steps. Measurements of the femora were taken using digital calipers to determine femur length and external callus dimensions. The intramedullary pin was removed from the fractured femur. The femoral ends were potted in 1-inch hexnuts using a low melt temperature metal (Wood's metal, Alfa Aesar, Ward Mill, Mass.). Once potted, the gage length (L) of each femur was measured. Torsional testing was conducted using a servohydraulic testing machine (MTS, Eden, Praire, Minn.) with a 20 Nm reaction torque cell (Interface, Scottsdale, Ariz.). The testing was carried out to failure at a rate of 2°/sec and a data recording rate of 20 Hz. Both the fractured and intact femora were tested in internal rotation in proper anatomic orientation. The peak torque and angle at failure were calculated from the load-deformation curves. Internal fracture callus dimensions were measured after mechanical testing. […]
# [4] = test system: closed femur fractures in female retired breeder Sprague-Dawley rats; experiment: Closed femur fracture healing in rats, histology; assay type: in vivo, rat; conditions: for Fracture callus histology: two weeks post-fracture
# Procedure: as §1, with “Rats were initially gavaged with drugs 6 hours after surgery (between 4 and 6 PM on day 1) and then twice/day afterwards for 5 days (between 6-8 AM and again between 5-7 PM).” left out
# as §2
# Femurs were dissected from rats at 2, 4, 6, and 8 weeks as detailed in Appendix A. Soft tissue was dissected from the femurs and the femurs were fixed overnight in buffered formalin. The femurs were then embedded in polymethylmethacrylate (PMMA) following standard procedures. Longitudinal sections (˜200 um thick) were cut from the PMMA blocks and ground and polished to a thickness of approximately 50-100 um. The sections were then stained with Van Gieson's picrofuschin and Stevenel's Blue. […] Sections were photographed with an Olympus BH2 microscope.
# fracture healing in rats = experiment: Prior experiments: fracture healing in rats treated with a COX-2 inhibitor; assay type: in vivo, rat
# Text: The prior set of experiments examining the effects of COX-2-selective NSAIDs on fracture healing used retired breeder male Sprague-Dawley rats with an average size of approximately 600 g. To stabilize the femur fractures in these animals, a stainless steel rod with a diameter of 1.1 mm was used. This same diameter rod was continually used during the initial phases of this study even though 250-300 g retired breeder female Sprague-Dawley rats were used.
# [5] = Group C, 4 weeks post-fracture, 30 mg/kg/day
# [6] = Group C, 4 weeks post-fracture, 2×30 mg/kg/day
# [7] = Groups A and B (rats 1-57), twice-a-day treated rats
# [8] = Groups A and B, 4 weeks post-fx, 30 mg/kg/day
# [9] = Groups A and B, 6 weeks post-fx, 30 mg/kg/day
# [10] = Groups A and B, 6 weeks post-fx, 2×30 mg/kg/day
# [11] = Groups A and B, 8 weeks post-fx, 2×30 mg/kg/day
# [12] = advanced disease, 90 mg/kg bid oral, 20 days
# [13] = Group C, 4 weeks post-fracture, rofecoxib 3 mg/kg/day
# [14] = Groups A and B, 8 weeks post-fx, rofecoxib 3 mg/kg/day
smiles,measurement,setting,value
C[C@@H]1CN(Cc2ccc(F)cc2)[C@@H](C)CN1C(=O)c1cc2c(C(=O)C(=O)N(C)C)c[nH]c2cc1Cl [compound 162],Histological analysis of joint lesion morphology,"[1]; treatment initiated at onset of disease, 90 mg/kg bid oral, 10 days",dramatic reduction in all aspects of joint lesion morphology including reduced cartilage and bone erosions
same,clinical scoring,"[1]; treatment initiated at onset of disease, 90 mg/kg bid oral, 10 days, mean ± std dev, vehicle 7.0±3.4",2.4±1.5
COc1cc2c(cc1C(=O)N1CCC(Cc3ccc(F)cc3)CC1)c(C(=O)C(=O)N(C)C)cn2C [compound 25],Radiographic scores compared with control and rofecoxib,"[2]; 4 week post-fracture radiographs, 30 mg/kg once or twice per day",significantly higher scores than the control or rofecoxib treated rats
same,"Radiographic score, Mean","[2]; 4 weeks post-fracture, 30 mg/kg oral once per day for 5 days",3.2
same,"Radiographic score, Mean","[2]; 4 weeks post-fracture, 30 mg/kg oral twice per day for 5 days",3.75
same,Effect on fracture healing (overall),[2]; oral 30 mg/kg once or twice per day,does not negatively affect fracture healing and can actually enhance or accelerate the healing process
same,Normalized peak torque compared with rofecoxib and control,"[3]; Group C, 4 weeks post-fracture",significantly increased normalized peak torque relative to rofecoxib treated rats but not relative to the control animals
same,NSS = normalized shear stress,[3]; [5],15 ± 8
same,NTR = normalized torsional rigidity,[3]; [5],28 ± 24
same,NPT = normalized peak torque,"[3]; Group C, 4 weeks post-fracture, 30 mg/kg/day, percentage of fractured relative to contralateral femur",50 ± 11
same,NSS = normalized shear stress,[3]; [6],10 ± 4
same,NTR = normalized torsional rigidity,[3]; [6],61 ± 55
same,NPT = normalized peak torque,"[3]; Group C, 4 weeks post-fracture, 2×30 mg/kg/day, percentage of fractured relative to contralateral femur",48 ± 14
same,normalized peak torque,[3]; [7],~150%
same,normalized torsional rigidity,[3]; [7],~150%
same,NPT = normalized peak torque,[3]; [8],57
same,NSS = normalized shear stress,[3]; [8],14.1
same,NTR = normalized torsional rigidity,[3]; [8],69
same,NPT = normalized peak torque,[3]; [9],85 ± 17
same,NSS = normalized shear stress,[3]; [9],36 ± 11
same,NTR = normalized torsional rigidity,[3]; [9],109 ± 52
same,NPT = normalized peak torque,[3]; [10],97
same,NSS = normalized shear stress,[3]; [10],63
same,NTR = normalized torsional rigidity,[3]; [10],126
same,NPT = normalized peak torque,[3]; [11],158 ± 46
same,NSS = normalized shear stress,[3]; [11],45 ± 1
same,NTR = normalized torsional rigidity,[3]; [11],156 ± 68
same,Histological analysis of fracture healing (summary),[4]; 30 mg/kg once or twice per day,enhanced fracture healing by increasing and/or accelerating calcified cartilage formation as well as new bone formation
same,Amount of osteoclasts within the fracture callus,[4]; not quantified,appeared to approximate levels found in control rats
same,Fracture callus histology,[4]; 30 mg/kg once per day,a near normal amount of woven bone but more than normal amounts of chondrocytes
same,Fracture callus histology,[4]; 30 mg/kg twice per day,advanced healing with the fracture gap almost filled with newly formed woven bone
same,cartilage and bone healing by histological assessment,[1]; [12],evidence of cartilage and bone healing
same,serum cartilage oligomeric matrix protein (COMP),[1]; [12],reduced serum cartilage oligomeric matrix protein
same,osteoclast number,"[1]; advanced disease, compared to baseline and vehicle treated groups",reduced osteoclast number
same,clinical scoring,"[1]; treatment initiated in advanced disease, 90 mg/kg bid oral, 20 days, vehicle 9.1±2.2",4.9±1.7
"CS(=O)(=O)c1ccc(C2=C(c3ccccc3)C(=O)OC2)cc1 [Rofecoxib, rofecoxib, reference compound]","Radiographic score, Mean","[2]; 4 weeks post-fracture, rofecoxib 3 mg/kg oral once a day for 5 days",0.83
same,Bridging of the fracture in radiographs,"[2]; 4 weeks post-fracture, rofecoxib 3 mg/kg once a day",little or no bridging was evident
same,NSS = normalized shear stress,[3]; [13],13 ± 9
same,NTR = normalized torsional rigidity,[3]; [13],19 ± 9
same,NPT = normalized peak torque,"[3]; Group C, 4 weeks post-fracture, rofecoxib 3 mg/kg/day, percentage of fractured femur relative to contralateral femur",32 ± 3
same,NPT = normalized peak torque,[3]; [14],57 ± 42
same,NSS = normalized shear stress,[3]; [14],16 ± 8
same,NTR = normalized torsional rigidity,[3]; [14],100 ± 82
same,Fibrous non-unions,"[4]; rofecoxib, 5 days of treatment",development of fibrous non-unions in some of the rofecoxib treated rats
same,Fracture callus histology,[4]; rofecoxib 3 mg/kg once a day,less woven bone formation was observed
same,Fracture healing,fracture healing in rats,dramatically impaired
